Earlier results, collected in patent publication US9856441B2, “Soap bar” (COLGATE-PALMOLIVE COMPANY, priority 2013, dated 2018).

NCCS(=O)(=O)O [taurine, 2-aminoethanesulfonic acid]
maximum solubility of taurine in water (room temperature): about 6 weight % | solubility of taurine itself (taurine not in salt form): up to 6%
